Each structure is given as a SMILES string. Active and inactive are the calls of the source. Some results are limits rather than exact numbers.

Assay [1] is described as follows: HeLa cell cytotoxicity, dose response, cytotoxicity control for MgcRacGAP inhibitor project (AID 624300). The class given is functional.
The target of assay [2] is T1, Rac GTPase-activating protein 1 (Homo sapiens, UniProt Q9H0H5).
T1 sequence (Q9H0H5 whole entry): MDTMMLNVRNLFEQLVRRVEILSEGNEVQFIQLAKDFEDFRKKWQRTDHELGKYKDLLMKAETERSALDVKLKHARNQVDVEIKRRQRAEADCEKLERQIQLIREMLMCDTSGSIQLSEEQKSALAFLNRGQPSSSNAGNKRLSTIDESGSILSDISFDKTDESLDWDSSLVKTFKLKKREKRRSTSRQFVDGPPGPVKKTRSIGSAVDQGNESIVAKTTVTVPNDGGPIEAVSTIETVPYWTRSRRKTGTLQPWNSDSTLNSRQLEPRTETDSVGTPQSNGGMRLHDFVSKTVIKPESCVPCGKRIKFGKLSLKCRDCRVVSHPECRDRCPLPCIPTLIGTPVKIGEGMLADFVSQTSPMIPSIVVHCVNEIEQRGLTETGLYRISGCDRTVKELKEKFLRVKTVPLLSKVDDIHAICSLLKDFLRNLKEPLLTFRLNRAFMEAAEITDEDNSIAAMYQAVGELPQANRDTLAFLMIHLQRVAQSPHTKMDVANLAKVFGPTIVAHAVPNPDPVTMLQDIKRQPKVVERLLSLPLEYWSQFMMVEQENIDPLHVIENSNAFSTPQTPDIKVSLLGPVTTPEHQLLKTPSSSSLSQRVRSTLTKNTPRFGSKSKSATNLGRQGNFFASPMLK
Briefly: MgcRacGAP GTPase-activating activity inhibitors, confirmation, biochemical, ADP Hunter fluorescence, primary and confirmatory (AID 624330). The class given is functional.

Assay [3] is described as follows: P. falciparum 3D7-ScDHODH growth inhibitors, dose response, SYBR Green, dry powder samples (AID 1159570).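 Also: parasite growth measured after 72 hours of compound exposure.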 The class given is functional, cell-based.
A short description of assay [4]: P. falciparum Dd2 growth inhibitors, dose response, SYBR Green, cherry-picked samples (AID 1159567). The class given is functional, cell-based.
Assay [5] in a line: P. falciparum Dd2 growth inhibitors, dose response, SYBR Green, dry powder samples (AID 1159566).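 Also: potency for growth inhibition with lower SYBR green DNA signal.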 The class given is functional, cell-based.
Assay [6] can be described thus: P. falciparum ATP4 D1247Y mutant growth inhibitors, dose response, NITD609-resistant line, SYBR Green, dry powder (AID 1159571).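 Also: parasites synchronized at ring stage by sorbitol before testing.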 The class given is functional, cell-based.
The target of assay [7] is T2, Fatty acid synthase (Homo sapiens, UniProt P49327). Kind of assay: FAS thioesterase domain inhibitors, dose response, biochemical, endpoint fluorescence intensity, uHTS hits (AID 624327).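 Also: fluorescence from hydrolysis of an O-methyl fluorescein acyl ester substrate by the enzyme.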 The class given is functional.
Assay [8] deals with T2, Fatty acid synthase. Kind of assay: FAS thioesterase domain inhibitors, dose response, biochemical, kinetic fluorescence intensity (AID 624326).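 Also: rate of fluorescence rise from hydrolysis of a fluorogenic O-methyl fluorescein ester substrate.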 The class given is functional.
The target in assay [9] is T3, Caspase-3 (Homo sapiens, UniProt P42574).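 Also: Dose-response selectivity test against caspase-3 for candidate inhibitors of sentrin-specific proteases (SENPs).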
T3 sequence (P42574 whole entry): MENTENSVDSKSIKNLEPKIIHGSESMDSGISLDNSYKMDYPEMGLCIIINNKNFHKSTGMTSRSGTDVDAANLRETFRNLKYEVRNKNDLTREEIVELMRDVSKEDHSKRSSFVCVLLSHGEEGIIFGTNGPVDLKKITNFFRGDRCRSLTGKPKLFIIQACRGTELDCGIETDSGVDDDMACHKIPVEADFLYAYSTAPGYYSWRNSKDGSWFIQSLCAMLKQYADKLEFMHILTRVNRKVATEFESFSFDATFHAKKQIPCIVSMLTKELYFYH
The class given is functional.

Assay [10] concerns the target T4, Sentrin-specific protease 7 (Homo sapiens, UniProt Q9BQF6).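 Also: Luminescence-based dose-response confirmation of ultra-high-throughput screening hits, measuring inhibition of SENP7.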
T4 sequence (Q9BQF6 whole entry): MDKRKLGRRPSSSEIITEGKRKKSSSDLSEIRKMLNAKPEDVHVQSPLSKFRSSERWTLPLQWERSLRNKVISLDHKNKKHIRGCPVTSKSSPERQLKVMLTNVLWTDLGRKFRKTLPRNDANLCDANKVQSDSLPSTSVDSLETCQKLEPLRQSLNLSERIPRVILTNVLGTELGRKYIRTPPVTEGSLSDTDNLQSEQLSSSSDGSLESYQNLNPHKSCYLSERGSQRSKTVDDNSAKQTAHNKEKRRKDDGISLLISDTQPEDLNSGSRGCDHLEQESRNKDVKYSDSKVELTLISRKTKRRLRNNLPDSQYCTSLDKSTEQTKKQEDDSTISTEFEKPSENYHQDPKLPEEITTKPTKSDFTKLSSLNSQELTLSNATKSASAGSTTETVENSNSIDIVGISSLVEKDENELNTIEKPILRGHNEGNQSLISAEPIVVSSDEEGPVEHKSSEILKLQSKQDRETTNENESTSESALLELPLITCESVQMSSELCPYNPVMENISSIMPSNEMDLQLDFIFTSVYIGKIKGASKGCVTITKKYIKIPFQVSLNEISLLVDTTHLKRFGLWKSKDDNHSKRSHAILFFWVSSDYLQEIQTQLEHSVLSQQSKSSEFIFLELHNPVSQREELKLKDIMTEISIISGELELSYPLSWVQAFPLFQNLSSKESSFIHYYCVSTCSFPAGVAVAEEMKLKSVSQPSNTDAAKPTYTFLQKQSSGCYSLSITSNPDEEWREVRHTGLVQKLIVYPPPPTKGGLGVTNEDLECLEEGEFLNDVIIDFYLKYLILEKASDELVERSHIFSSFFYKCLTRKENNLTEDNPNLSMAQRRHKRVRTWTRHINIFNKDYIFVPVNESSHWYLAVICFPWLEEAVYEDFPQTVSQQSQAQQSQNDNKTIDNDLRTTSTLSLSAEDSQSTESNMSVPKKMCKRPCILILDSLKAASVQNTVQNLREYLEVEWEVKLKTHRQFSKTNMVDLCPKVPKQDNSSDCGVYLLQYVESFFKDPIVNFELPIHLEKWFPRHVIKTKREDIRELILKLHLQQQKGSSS
The class given is functional.

Assay [11] addresses T5, Sentrin-specific protease 6 (Homo sapiens, UniProt Q9GZR1).
T5 sequence (Q9GZR1 whole entry): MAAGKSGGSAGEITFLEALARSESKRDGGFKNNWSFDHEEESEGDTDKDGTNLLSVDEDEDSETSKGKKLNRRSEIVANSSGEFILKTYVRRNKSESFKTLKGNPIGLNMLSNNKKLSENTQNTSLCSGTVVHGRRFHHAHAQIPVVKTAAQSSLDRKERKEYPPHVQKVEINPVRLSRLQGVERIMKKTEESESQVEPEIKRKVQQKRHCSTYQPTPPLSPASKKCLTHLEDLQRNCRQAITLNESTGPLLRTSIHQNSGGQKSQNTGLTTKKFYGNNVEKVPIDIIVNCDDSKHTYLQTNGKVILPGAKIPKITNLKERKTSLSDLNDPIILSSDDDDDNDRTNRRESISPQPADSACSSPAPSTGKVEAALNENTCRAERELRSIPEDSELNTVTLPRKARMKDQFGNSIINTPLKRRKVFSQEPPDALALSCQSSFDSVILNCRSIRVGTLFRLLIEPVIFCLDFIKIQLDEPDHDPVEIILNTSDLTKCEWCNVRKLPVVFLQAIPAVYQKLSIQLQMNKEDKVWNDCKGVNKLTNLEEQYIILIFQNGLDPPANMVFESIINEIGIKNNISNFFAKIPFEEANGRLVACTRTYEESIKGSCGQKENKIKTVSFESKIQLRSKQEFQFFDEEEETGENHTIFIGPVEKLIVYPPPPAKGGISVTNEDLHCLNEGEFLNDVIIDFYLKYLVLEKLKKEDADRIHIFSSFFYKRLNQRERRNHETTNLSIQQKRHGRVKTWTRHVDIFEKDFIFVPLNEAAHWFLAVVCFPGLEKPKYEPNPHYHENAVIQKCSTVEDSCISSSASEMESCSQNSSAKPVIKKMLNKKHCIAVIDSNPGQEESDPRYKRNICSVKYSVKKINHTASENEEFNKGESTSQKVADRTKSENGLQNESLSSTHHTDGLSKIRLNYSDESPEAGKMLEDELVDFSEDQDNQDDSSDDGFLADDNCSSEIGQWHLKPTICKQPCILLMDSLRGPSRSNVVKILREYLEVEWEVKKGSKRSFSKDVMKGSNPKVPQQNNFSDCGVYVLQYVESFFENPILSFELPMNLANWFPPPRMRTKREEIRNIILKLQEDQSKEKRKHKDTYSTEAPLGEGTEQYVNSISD
The class given is functional.

The target in assay [12] is T6, Sentrin-specific protease 8 (Homo sapiens, UniProt Q96LD8).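 Also: luminescence read-out of SENP8 inhibition, dose-response confirmation following an ultra-high-throughput screen.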
T6 sequence (Q96LD8 whole entry): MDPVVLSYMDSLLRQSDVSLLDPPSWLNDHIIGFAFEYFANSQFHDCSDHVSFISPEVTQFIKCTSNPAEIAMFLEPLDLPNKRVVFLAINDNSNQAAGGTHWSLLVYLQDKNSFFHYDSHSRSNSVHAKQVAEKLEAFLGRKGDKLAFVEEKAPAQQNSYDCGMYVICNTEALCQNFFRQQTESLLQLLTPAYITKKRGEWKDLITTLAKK
The class given is functional.

The target in assay [13] is Glyceraldehyde-3-phosphate dehydrogenase (Homo sapiens, UniProt P04406).
A short description of assay [14]: inhibitors of intracellular T. cruzi replication, confirmation, NIH3T3 host cells, beta-gal luminescence (AID 2044).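 Also: intracellular parasites grown in NIH/3T3 mouse fibroblasts as host cells; luminescent beta-galactosidase reporter signal from transgenic T. cruzi replicating inside host cells; inhibitors lower the luminescence signal.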 The class given is functional, cell-based.
The nature of assay [15]: cytotoxicity toward NIH3T3 fibroblasts, dose response, counter-screen, cell-based, ATP luminescence, mouse fibroblasts (AID 2010).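 Also: cells exposed to compound for about 90 hours before reading.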 The class given is functional.
In assay [16] the target is DNA dC->dU-editing enzyme APOBEC-3G (Homo sapiens, UniProt Q9HC16). Briefly: Dose Response confirmation of small molecule APOBEC3G DNA Deaminase Inhibitors via a fluorescence-based single-stranded DNA deaminase assay. [Related pubchem assays (depositor defined):AID493012, AID493028]. The class given is functional.
The test system of assay [17] is Vero. Briefly: cells. The class given is functional, cell-based. The settings on record: Chlorocebus sabaeus.
Assay [18] relates to Vero. Kind of assay: cells. The class given is functional. The settings on record: Chlorocebus sabaeus.

T2 sequence (P49327 whole entry, the tested form may be a part): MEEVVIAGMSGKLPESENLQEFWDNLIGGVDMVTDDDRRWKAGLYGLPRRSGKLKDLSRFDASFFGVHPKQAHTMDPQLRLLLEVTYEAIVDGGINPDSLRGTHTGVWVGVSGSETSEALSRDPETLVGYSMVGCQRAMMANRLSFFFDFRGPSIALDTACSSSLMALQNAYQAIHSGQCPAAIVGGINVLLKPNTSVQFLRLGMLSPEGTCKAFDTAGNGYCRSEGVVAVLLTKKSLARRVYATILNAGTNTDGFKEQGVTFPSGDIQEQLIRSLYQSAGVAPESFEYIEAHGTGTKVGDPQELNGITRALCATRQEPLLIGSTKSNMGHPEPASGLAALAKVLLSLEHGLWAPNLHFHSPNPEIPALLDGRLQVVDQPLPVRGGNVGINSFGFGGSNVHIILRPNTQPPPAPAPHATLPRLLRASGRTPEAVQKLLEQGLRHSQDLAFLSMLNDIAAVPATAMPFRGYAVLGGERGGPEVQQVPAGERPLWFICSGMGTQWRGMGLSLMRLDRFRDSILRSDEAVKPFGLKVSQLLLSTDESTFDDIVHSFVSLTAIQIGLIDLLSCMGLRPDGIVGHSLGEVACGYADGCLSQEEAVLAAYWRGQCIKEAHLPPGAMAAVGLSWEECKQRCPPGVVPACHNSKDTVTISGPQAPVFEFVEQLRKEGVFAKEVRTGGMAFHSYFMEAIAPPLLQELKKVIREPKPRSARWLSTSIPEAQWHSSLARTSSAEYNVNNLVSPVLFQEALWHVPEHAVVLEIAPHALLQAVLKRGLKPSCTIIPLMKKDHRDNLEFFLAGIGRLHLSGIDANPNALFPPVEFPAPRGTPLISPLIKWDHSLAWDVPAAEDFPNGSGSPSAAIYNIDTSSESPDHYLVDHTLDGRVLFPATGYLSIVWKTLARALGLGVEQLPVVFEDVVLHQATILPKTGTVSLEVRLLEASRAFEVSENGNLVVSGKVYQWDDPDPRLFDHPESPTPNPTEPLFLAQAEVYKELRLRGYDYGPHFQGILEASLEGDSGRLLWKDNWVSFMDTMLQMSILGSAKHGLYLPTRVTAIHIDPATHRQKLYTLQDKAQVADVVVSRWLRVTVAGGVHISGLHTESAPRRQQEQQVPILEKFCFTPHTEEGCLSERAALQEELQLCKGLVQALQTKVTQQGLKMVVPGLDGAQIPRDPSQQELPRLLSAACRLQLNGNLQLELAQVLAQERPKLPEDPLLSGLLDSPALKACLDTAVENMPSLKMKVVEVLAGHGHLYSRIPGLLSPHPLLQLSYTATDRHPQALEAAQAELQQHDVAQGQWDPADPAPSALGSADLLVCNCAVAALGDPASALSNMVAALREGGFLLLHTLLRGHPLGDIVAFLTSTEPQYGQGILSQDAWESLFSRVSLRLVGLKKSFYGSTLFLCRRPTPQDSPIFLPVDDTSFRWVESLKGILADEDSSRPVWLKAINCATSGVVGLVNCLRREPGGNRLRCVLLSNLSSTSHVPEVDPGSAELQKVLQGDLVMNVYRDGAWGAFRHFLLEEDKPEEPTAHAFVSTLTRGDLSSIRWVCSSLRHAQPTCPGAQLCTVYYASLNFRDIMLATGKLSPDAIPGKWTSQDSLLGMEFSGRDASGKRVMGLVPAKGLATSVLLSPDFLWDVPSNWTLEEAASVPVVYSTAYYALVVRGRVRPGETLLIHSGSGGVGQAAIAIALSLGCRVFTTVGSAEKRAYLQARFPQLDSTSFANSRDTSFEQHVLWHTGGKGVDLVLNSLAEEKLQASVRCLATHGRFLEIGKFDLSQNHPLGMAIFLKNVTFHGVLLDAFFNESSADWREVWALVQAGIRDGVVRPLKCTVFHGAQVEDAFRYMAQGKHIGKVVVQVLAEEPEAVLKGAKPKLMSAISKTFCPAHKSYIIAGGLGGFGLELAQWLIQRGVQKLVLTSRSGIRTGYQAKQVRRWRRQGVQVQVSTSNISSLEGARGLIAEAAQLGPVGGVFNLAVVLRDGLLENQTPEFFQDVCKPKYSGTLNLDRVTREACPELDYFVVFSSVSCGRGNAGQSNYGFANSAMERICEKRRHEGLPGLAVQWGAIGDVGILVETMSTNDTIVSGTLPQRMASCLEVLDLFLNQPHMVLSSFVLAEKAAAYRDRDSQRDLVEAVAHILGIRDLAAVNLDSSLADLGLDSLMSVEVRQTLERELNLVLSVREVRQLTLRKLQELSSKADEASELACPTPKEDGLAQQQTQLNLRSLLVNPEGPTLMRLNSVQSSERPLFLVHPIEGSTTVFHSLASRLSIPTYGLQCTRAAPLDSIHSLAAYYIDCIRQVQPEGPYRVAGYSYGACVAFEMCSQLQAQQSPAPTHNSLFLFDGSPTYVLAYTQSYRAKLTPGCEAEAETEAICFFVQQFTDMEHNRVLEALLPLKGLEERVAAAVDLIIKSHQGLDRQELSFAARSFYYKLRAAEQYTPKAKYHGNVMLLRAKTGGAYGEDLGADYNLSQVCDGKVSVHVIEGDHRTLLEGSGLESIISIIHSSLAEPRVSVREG
Chain of DNA dC->dU-editing enzyme APOBEC-3G (Q9HC16 whole entry): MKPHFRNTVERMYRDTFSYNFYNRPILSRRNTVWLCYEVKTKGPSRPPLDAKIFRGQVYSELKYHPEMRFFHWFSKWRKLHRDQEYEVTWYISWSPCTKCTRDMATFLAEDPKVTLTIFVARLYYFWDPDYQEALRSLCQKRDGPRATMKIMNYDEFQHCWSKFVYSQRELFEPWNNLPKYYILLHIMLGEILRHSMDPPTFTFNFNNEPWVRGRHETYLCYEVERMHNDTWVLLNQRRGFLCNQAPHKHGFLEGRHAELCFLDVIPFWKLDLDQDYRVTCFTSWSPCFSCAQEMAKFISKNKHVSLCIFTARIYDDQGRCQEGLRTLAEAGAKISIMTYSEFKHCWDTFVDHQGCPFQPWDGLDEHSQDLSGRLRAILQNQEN
Chain of Glyceraldehyde-3-phosphate dehydrogenase (P04406 whole entry): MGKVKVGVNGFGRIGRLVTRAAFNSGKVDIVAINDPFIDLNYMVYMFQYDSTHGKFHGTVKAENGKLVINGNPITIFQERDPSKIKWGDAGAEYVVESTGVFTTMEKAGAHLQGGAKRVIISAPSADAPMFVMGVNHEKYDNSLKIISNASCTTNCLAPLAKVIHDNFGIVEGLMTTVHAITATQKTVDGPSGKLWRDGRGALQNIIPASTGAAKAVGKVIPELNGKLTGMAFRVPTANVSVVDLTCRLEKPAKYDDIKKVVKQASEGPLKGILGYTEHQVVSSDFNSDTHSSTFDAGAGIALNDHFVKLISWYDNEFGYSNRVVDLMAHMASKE

Regarding `CC1CCCN(CCOc2ccc3ccccc3c2Br)C1` (centres undefined), the CC50 in assay [1] was 68.9 µM (active). The IC50 in assay [2] is 142 µM (active).
For `C[C@H](CO)N1C[C@H](C)[C@H](CN(C)CC2CC2)Oc2ccc(NC(=O)Nc3ccccc3)cc2CC1=O`, the AC50 in assay [3] was 3810 nM (active); in assay [4] it was 2.08 µM (active); in [5], 3.39 µM (active); in assay [6], 4.64 µM (active).
As to `O=C(COC(=O)c1cc([N+](=O)[O-])ccc1Cl)NCCc1ccccc1`, the IC50 in assay [7] was 3.93 µM (active); in [8], 5.26 µM (active).
For `CCCCCc1ccc(-c2ccc(OC)cc2)nc1`, the IC50 in assay [9] is 37.2 µM (active); in [10] it was 9.32 µM (active); in assay [11] it was 41.8 µM (active); in assay [12], 80.5 µM (active).
With `c1ccc2c(c1)Nc1ccncc1S2`, the CC50 in [1] was 100 µM (active). For the same compound, the IC50 in assay [2] was 269 µM (active).
In the case of `CN(C)C=O.O=C(O)c1ccccc1NS(=O)(=O)c1ccc(NN=Cc2ccc(F)cc2)c([N+](=O)[O-])c1`, the IC50 in assay [7] is 7.9 µM (active); in assay [8], 4.43 µM (active).
Turning to `Cc1oc2c(c1C(=O)Nc1cccc(C(=O)O)c1)CCCC2`, the IC50 in assay [13] was > 100 µM (not active).
Take `COc1ccc(-n2c(SCC(=O)C(C)(C)C)nc3c(sc(=S)n3-c3ccccc3)c2=O)c(OC)c1`: the EC50 was 714 nM (active) in [14] and > 60 µM (not active) in assay [15]. Besides, in [16], the IC50 is 66.5 µM (active).
Regarding `O=C(NCCSc1ccccc1)c1ccc(Br)cc1`, the IC50 in assay [9] is 17.7 µM (active); in assay [10], 7.71 µM (active); in assay [11], 22.4 µM (active); in assay [12] it was 26.8 µM (active).
As for `C[C@H]1CN([C@@H](C)CO)C(=O)c2c(c3ccccc3n2C)-c2ccccc2CO[C@@H]1CN(C)C(=O)Nc1ccc(-c2ccccc2)cc1`, the AC50 in [3] is 787 nM (active); in assay [4], 1.38 µM (active); in assay [5], 0.507 µM (active); in assay [6] it was 0.532 µM (active).
Take `C[C@@H]1CN([C@@H](C)CO)C(=O)c2cccc(NC(=O)c3nc4ccccc4s3)c2O[C@H]1CN(C)C(=O)NC1CCCCC1`: the AC50 is 846 nM (active) in assay [3], 1.37 µM (active) in assay [4], 1.08 µM (active) in assay [5] and 1.05 µM (active) in [6].
In the case of `Cc1ccc2oc(=O)c3cnn(CC(=O)Nc4ccccc4N4CCN(C)CC4)c3c2c1`, the IC50 in [17] was 9.16 µM (active).
Regarding `O=C1C(Cl)=C(N2CCN(Cc3ccccc3)CC2)C(=O)N1c1ccc(Cl)nc1`, the IC50 in assay [13] was > 50 µM (inconclusive).
Consider `CCc1c(C(=O)NC2CCCc3ccccc32)[nH]c(C)c1C(C)=O` (centres undefined), for which, in assay [17], the IC50 was 9.95 µM (active). Further, in assay [18], the CC50 was > 25 µM (active).
In the case of `COc1ccc(/C=N/N2CCN(c3ccccc3OC)CC2)cc1Br`, the IC50 in assay [9] is 21.1 µM (active); in [10] it was 7.1 µM (active); in assay [11], 25 µM (active); in assay [12] it was 54.9 µM (active).
Take `O=C(CN(CC(=O)N1CCOCC1)S(=O)(=O)c1ccc(Br)s1)N1CCOCC1`: the IC50 in assay [16] was 74.3 µM (active).
Turning to `Cc1ccc(C(=O)O/N=C(\N)Cc2cccs2)cc1[N+](=O)[O-]`, the IC50 in assay [7] was 9.57 µM (active); in [8], 8.33 µM (active).
For `O=C(CSc1ncnc2c1cnn2-c1ccccc1)NC1CCCC1`, in that order: 5.94 µM (active) and 5.67 µM (active).
In the case of `O=C(Nc1ccc(C2CC2(Cl)Cl)cc1)c1cccc([N+](=O)[O-])c1` (centres undefined), the IC50 in [9] is 28.8 µM (active); in assay [10] it was 5.14 µM (active); in assay [11], 7.84 µM (active); in assay [12] it was 29.5 µM (active).

(Values after ChEMBL document CHEMBL1201862, “PubChem BioAssay data set” (2004).)
